Where a name gives a salt, the structure may show the parent alone.
Legend:
[1] = system: cerebellar granule cells (CGC); assay: Antiapoptotic capacity (rescue) in cerebellar granule cells induced into apoptosis by cytosine arabinoside (CGC assay); assay type: cell-based, Wistar rat; settings: for Rescue by Amino Phosphonic Acids in the CGC Assay, Rescue (overall yes/no) / Rescue by Amino Acids and Esters in the CGC Assay, Rescue (overall yes/no) / Rescue by Amino Nitriles in the CGC Assay, Rescue (overall yes/no) / Rescue by Amino Tetrazoles in the CGC Assay, Rescue (overall yes/no): overall over 10^−6, 10^−9, 10^−12 M
Source text: In Vitro Protocol for Assessing the Antiapoptotic Capacity of Various Compounds in Cerebellar Granule Cells
Cultures of cerebellar granule cells (CGC) can be induced into apoptosis by the addition of a high concentration of cytosine arabinoside (AraC). It has been shown that this is a p53 dependent apoptosis. We have measured the antiapoptotic effect of some amino acids, amino esters, amino phosphonic acids, amino nitriles and amino tetrazoles using this system.
Cultures of CGC were obtained from 6-8 day old Wistar rat pups. Cultures were grown on glass in 35 mm petri dishes for three days and then used for experiments. Aliquots (20 ul) of drug solutions (AraC, anti-apoptotic drugs, drug vehicles) were added to the medium of the culture. 24 Hours later the cultures were fixed with FAM, and stained with bis-benzamide. Normal and apoptotic nuclei were counted to a total of 90-120 cells per culture.

[2] = compound 10^−6 M, AraC 300 uM-induced apoptosis, 24 hours
[3] = compound 10^−9 M, AraC 300 uM-induced apoptosis, 24 hours
[4] = compound 10^−12 M, AraC 300 uM-induced apoptosis, 24 hours

CCCCCC(C)NCC#N (stereo in doubt) (as salt: hydrochloride) [R-2-heptyl (Acetonitriles), (R)-2-(2-Heptylamino)acetonitrile hydrochloride]
melting point: 152 to 153 °C

CCCCCCNCCP(=O)(O)O.Cl [1-Hexyl (Amino Phosphonic Acids), 2-(1-Hexylamino)ethanephosphonic acid hydrochloride]
Rescue by Amino Phosphonic Acids in the CGC Assay, Rescue (overall yes/no) [1]: no

CCCCC[C@@H](C)N(C)CCC(=O)O.Cl [R-2-Heptyl-N-methyl (B-Alanines), (R)-3-(2-Heptylmethylamino)propionic acid hydrochloride]
Rescue by Amino Acids and Esters in the CGC Assay, 10^−6 M [1, 2]: R | Rescue by Amino Acids and Esters in the CGC Assay, 10^−9 M [1, 3]: R | Rescue by Amino Acids and Esters in the CGC Assay, 10^−12 M [1, 4]: R | Rescue by Amino Acids and Esters in the CGC Assay, Rescue (overall yes/no) [1]: yes

CCCCC[C@H](C)NCC(=O)O.Cl [S-2-Heptyl (Glycines), (S)-2-(2-Heptylamino)acetic acid hydrochloride]
Rescue by Amino Acids and Esters in the CGC Assay, 10^−6 M [1, 2]: R | Rescue by Amino Acids and Esters in the CGC Assay, 10^−9 M [1, 3]: R | Rescue by Amino Acids and Esters in the CGC Assay, 10^−12 M [1, 4]: R | Rescue by Amino Acids and Esters in the CGC Assay, Rescue (overall yes/no) [1]: yes

CC(C)N(C)CCC(=O)O [2-Propyl-N-methyl (B-Alanines), 3-(2-Propylmethylamino)propionic acid]
Rescue by Amino Acids and Esters in the CGC Assay, 10^−6 M [1, 2]: R | Rescue by Amino Acids and Esters in the CGC Assay, 10^−9 M [1, 3]: R | Rescue by Amino Acids and Esters in the CGC Assay, Rescue (overall yes/no) [1]: yes

CCCCC[C@H](C)NCCP(=O)(O)O.Cl [S-2-Heptyl (Amino Phosphonic Acids), (S)-2-(2-Heptylamino)ethanephosphonic acid hydrochloride]
Rescue by Amino Phosphonic Acids in the CGC Assay, 10^−9 M [1, 3]: R | Rescue by Amino Phosphonic Acids in the CGC Assay, 10^−12 M [1, 4]: R | Rescue by Amino Phosphonic Acids in the CGC Assay, Rescue (overall yes/no) [1]: yes

CC(C)NCC(=O)O.Cl [2-Propyl (Glycines), 2-(2-Propylamino)acetic acid hydrochloride]
Rescue by Amino Acids and Esters in the CGC Assay, 10^−6 M [1, 2]: R | Rescue by Amino Acids and Esters in the CGC Assay, Rescue (overall yes/no) [1]: yes

CCCCCC(C)NCCC(=O)O (stereo in doubt) [R-2-Heptyl (B-Alanines), (R)-3-(2-Heptylamino)propionic acid hydrochloride]
Rescue by Amino Acids and Esters in the CGC Assay, 10^−9 M [1, 3]: R | Rescue by Amino Acids and Esters in the CGC Assay, 10^−12 M [1, 4]: R | Rescue by Amino Acids and Esters in the CGC Assay, Rescue (overall yes/no) [1]: yes

CCCCCC(C)NCCC#N (stereo in doubt) [R-2-Heptyl (Propionitriles), (R)-3-(2-Heptylamino)propionitrile hydrochloride]
Rescue by Amino Nitriles in the CGC Assay, 10^−9 M [1, 3]: R | Rescue by Amino Nitriles in the CGC Assay, 10^−12 M [1, 4]: R | Rescue by Amino Nitriles in the CGC Assay, Rescue (overall yes/no) [1]: yes

CCCCCC(C)NCC#N (stereo in doubt) [R-2-heptyl (Acetonitriles), (R)-2-(2-Heptylamino)acetonitrile hydrochloride]
Rescue by Amino Nitriles in the CGC Assay, Rescue (overall yes/no) [1]: no

(S)-2-(2-Heptylamino)ethane-5-tetrazole hydrochloride [S-2-Heptyl (Amino Tetrazoles)]
Rescue by Amino Tetrazoles in the CGC Assay, Rescue (overall yes/no) [1]: no

CCCCC[C@H](C)NCCC(=O)OC (stereo in doubt) (as salt: hydrochloride)
melting point: 89.5 to 90.5 °C

CCCCCC(C)N(C)CCC#N (stereo in doubt) (as salt: hydrochloride) [R-2-Heptyl-N-methyl (Propionitriles), (R)-3-(2-Heptylmethylamino)propionitrile hydrochloride]
melting point: 98 to 98.5 °C

CCCCCCNCCC(=O)OC [1-Hexyl (B-Alaninates), Methyl 3-(1-hexylamino)propionate hydrochloride]
Rescue by Amino Acids and Esters in the CGC Assay, 10^−9 M [1, 3]: R | Rescue by Amino Acids and Esters in the CGC Assay, 10^−12 M [1, 4]: R | Rescue by Amino Acids and Esters in the CGC Assay, Rescue (overall yes/no) [1]: yes

CCCCCC(C)NCCC(=O)O (stereo in doubt) (as salt: hydrochloride) [R-2-Heptyl (B-Alanines), (R)-3-(2-Heptylamino)propionic acid hydrochloride]
melting point: 57 to 58 °C

CCCCCC(C)NCCc1nnn[nH]1 (stereo in doubt) [R-2-Heptyl (Amino Tetrazoles), (R)-2-(2-Heptylamino)ethane-5-tetrazole hydrochloride]
Rescue by Amino Tetrazoles in the CGC Assay, 10^−6 M [1, 2]: R | Rescue by Amino Tetrazoles in the CGC Assay, 10^−9 M [1, 3]: R | Rescue by Amino Tetrazoles in the CGC Assay, 10^−12 M [1, 4]: R | Rescue by Amino Tetrazoles in the CGC Assay, Rescue (overall yes/no) [1]: yes

CCCCCC(C)NCC(=O)O (stereo in doubt) [R-2-Heptyl (Glycines), (R)-2-(2-Heptylamino)acetic acid hydrochloride]
Rescue by Amino Acids and Esters in the CGC Assay, Rescue (overall yes/no) [1]: no

CCCCCCNCC#N.Cl [1-Hexyl (Acetonitriles), 2-(1-Hexylamino)acetonitrile hydrochloride]
Rescue by Amino Nitriles in the CGC Assay, 10^−9 M [1, 3]: R | Rescue by Amino Nitriles in the CGC Assay, 10^−12 M [1, 4]: R | Rescue by Amino Nitriles in the CGC Assay, Rescue (overall yes/no) [1]: yes

COC(=O)CCNC(C)C.Cl [2-Propyl (B-Alaninates), Methyl 3-(2-propylamino)propionate hydrochloride]
Rescue by Amino Acids and Esters in the CGC Assay, Rescue (overall yes/no) [1]: no

CCC[C@@H](C)NCC#N [R-2-Pentyl (Acetonitriles), (R)-2-(2-Pentylamino)acetonitrile]
Rescue by Amino Nitriles in the CGC Assay, 10^−9 M [1, 3]: R | Rescue by Amino Nitriles in the CGC Assay, Rescue (overall yes/no) [1]: yes

CCCCC[C@@H](C)NCCP(=O)(O)O.Cl [R-2-Heptyl (Amino Phosphonic Acids), (R)-2-(2-Heptylamino)ethanephosphonic acid hydrochloride]
Rescue by Amino Phosphonic Acids in the CGC Assay, Rescue (overall yes/no) [1]: yes*

CCOC(=O)CNC(C)C (as salt: hydrochloride)
melting point: 120 to 121 °C

CCCCC[C@@H](C)N(C)CCC(=O)OC.Cl [R-2-Heptyl-N-methyl (B-Alaninates), (R)-Methyl 3-(2-heptylmethylamino)propionate hydrochloride]
Rescue by Amino Acids and Esters in the CGC Assay, 10^−6 M [1, 2]: R | Rescue by Amino Acids and Esters in the CGC Assay, 10^−9 M [1, 3]: R | Rescue by Amino Acids and Esters in the CGC Assay, 10^−12 M [1, 4]: R | Rescue by Amino Acids and Esters in the CGC Assay, Rescue (overall yes/no) [1]: yes

CC(C)NCCC#N.Cl [2-Propyl (Propionitriles), 3-(2-Propylamino)propionitrile hydrochloride]
Rescue by Amino Nitriles in the CGC Assay, Rescue (overall yes/no) [1]: no

CCCCCC(C)N(C)CCC#N (stereo in doubt) [R-2-Heptyl-N-methyl (Propionitriles), (R)-3-(2-Heptylmethylamino)propionitrile hydrochloride]
Rescue by Amino Nitriles in the CGC Assay, 10^−9 M [1, 3]: R | Rescue by Amino Nitriles in the CGC Assay, Rescue (overall yes/no) [1]: yes

CCC[C@@H](C)NCCP(=O)(O)O [R-2-Pentyl (Amino Phosphonic Acids), (R)-2-(2-Pentylamino)ethanephosphonic acid]
Rescue by Amino Phosphonic Acids in the CGC Assay, 10^−6 M [1, 2]: R | Rescue by Amino Phosphonic Acids in the CGC Assay, Rescue (overall yes/no) [1]: yes

CCCCCCNCC(=O)O.Cl [1-Hexyl (Glycines), 2-(1-Hexylamino)acetic acid hydrochloride]
Rescue by Amino Acids and Esters in the CGC Assay, 10^−9 M [1, 3]: R | Rescue by Amino Acids and Esters in the CGC Assay, Rescue (overall yes/no) [1]: yes

CCCCCC(C)NCCC#N (stereo in doubt) (as salt: hydrochloride) [R-2-Heptyl (Propionitriles), (R)-3-(2-Heptylamino)propionitrile hydrochloride]
melting point: 134 to 135 °C
